Assay results reported in the NIST ThermoML archive (doi:10.1016/j.jct.2013.10.031).

Test: wn = mass fraction of the nth substance listed
Settings: Gas, Burnett expansion method

FCC(F)(F)F [1,1,1,2-tetrafluoroethane] + CCC
Settings | mass density [kg/m3]
251.84 K, 167.7 kPa, w2 = 0.4 | 9.96073
251.85 K, 201.9 kPa, w2 = 0.4 | 13.2676
251.86 K, 140.8 kPa, w2 = 0.4 | 7.47724
251.88 K, 122.9 kPa, w2 = 0.4 | 5.6131
251.89 K, 177.7 kPa, w2 = 0.45 | 5.82156
251.9 K, 103.2 kPa, w2 = 0.45 | 3.28086
251.9 K, 135.5 kPa, w2 = 0.45 | 4.37034
251.9 K, 231.8 kPa, w2 = 0.45 | 7.75442
252.28 K, 125.8 kPa, w2 = 0.5 | 3.8957
252.28 K, 164.9 kPa, w2 = 0.5 | 5.1893
252.29 K, 95.7 kPa, w2 = 0.5 | 2.9246
252.29 K, 215.3 kPa, w2 = 0.5 | 6.9121
252.3 K, 277.7 kPa, w2 = 0.5 | 9.2069
254.94 K, 147.3 kPa, w2 = 0.65 | 4.0008
254.94 K, 193.1 kPa, w2 = 0.65 | 5.32
254.94 K, 251.7 kPa, w2 = 0.65 | 7.0741
254.95 K, 111.9 kPa, w2 = 0.65 | 3.0009
255.01 K, 161.7 kPa, w2 = 0.55 | 4.7449
255.01 K, 211.6 kPa, w2 = 0.55 | 6.3095
255.01 K, 275.1 kPa, w2 = 0.55 | 8.3897
255.02 K, 122.9 kPa, w2 = 0.55 | 3.5683
255.02 K, 242.1 kPa, w2 = 0.6 | 7.0088
255.03 K, 107.3 kPa, w2 = 0.6 | 2.9809
255.03 K, 141.3 kPa, w2 = 0.6 | 3.9638
255.03 K, 185.5 kPa, w2 = 0.6 | 5.2708
255.79 K, 278.4 kPa, w2 = 0.45 | 9.23624
255.8 K, 213.6 kPa, w2 = 0.45 | 6.93377
255.81 K, 124.4 kPa, w2 = 0.45 | 3.90764
255.81 K, 163.3 kPa, w2 = 0.45 | 5.20515
255.82 K, 214.2 kPa, w2 = 0.4 | 7.34761
255.82 K, 276.5 kPa, w2 = 0.4 | 9.7875
255.83 K, 125 kPa, w2 = 0.4 | 4.14099
255.83 K, 163.9 kPa, w2 = 0.4 | 5.51597
256.28 K, 141.3 kPa, w2 = 0.5 | 4.27286
256.28 K, 185.6 kPa, w2 = 0.5 | 5.69162
256.28 K, 242.9 kPa, w2 = 0.5 | 7.58146
256.28 K, 314.6 kPa, w2 = 0.5 | 10.099
256.29 K, 107.2 kPa, w2 = 0.5 | 3.20772
258.98 K, 181.5 kPa, w2 = 0.65 | 4.8943
258.99 K, 138.2 kPa, w2 = 0.65 | 3.6806
258.99 K, 237.5 kPa, w2 = 0.65 | 6.508
259 K, 308.1 kPa, w2 = 0.65 | 8.6533
259.04 K, 159.4 kPa, w2 = 0.6 | 4.3995
259.04 K, 209.2 kPa, w2 = 0.6 | 5.8501
259.04 K, 273.1 kPa, w2 = 0.6 | 7.7791
259.05 K, 121 kPa, w2 = 0.6 | 3.3086
259.15 K, 246.1 kPa, w2 = 0.55 | 7.2337
259.15 K, 319.6 kPa, w2 = 0.55 | 9.6189
259.16 K, 143 kPa, w2 = 0.55 | 4.0909
259.16 K, 188 kPa, w2 = 0.55 | 5.4398
260.14 K, 233.5 kPa, w2 = 0.45 | 7.48249
260.15 K, 178.4 kPa, w2 = 0.45 | 5.61717
260.16 K, 136 kPa, w2 = 0.45 | 4.21669
260.16 K, 216.7 kPa, w2 = 0.5 | 6.56707
260.16 K, 304 kPa, w2 = 0.45 | 9.96648
260.17 K, 104.4 kPa, w2 = 0.45 | 3.16556
260.18 K, 117.7 kPa, w2 = 0.4 | 3.78056
260.19 K, 155.8 kPa, w2 = 0.4 | 5.03578
260.19 K, 265.9 kPa, w2 = 0.4 | 8.93493
260.2 K, 125.4 kPa, w2 = 0.5 | 3.70054
260.2 K, 165.1 kPa, w2 = 0.5 | 4.92963
260.21 K, 95 kPa, w2 = 0.5 | 2.77802
260.25 K, 204 kPa, w2 = 0.4 | 6.70606
260.39 K, 282.8 kPa, w2 = 0.5 | 8.73987
263.01 K, 137.7 kPa, w2 = 0.65 | 3.5955
263.01 K, 237 kPa, w2 = 0.65 | 6.3575
263.01 K, 308.7 kPa, w2 = 0.65 | 8.4537
263.02 K, 181 kPa, w2 = 0.65 | 4.781
263.04 K, 222.9 kPa, w2 = 0.55 | 6.3877
263.05 K, 128.9 kPa, w2 = 0.55 | 3.6124
263.05 K, 219.6 kPa, w2 = 0.6 | 6.0704
263.05 K, 286.9 kPa, w2 = 0.6 | 8.072
263.05 K, 291.1 kPa, w2 = 0.55 | 8.4935
263.06 K, 167.2 kPa, w2 = 0.6 | 4.5651
263.06 K, 169.8 kPa, w2 = 0.55 | 4.8035
263.06 K, 376.6 kPa, w2 = 0.55 | 11.2936
263.07 K, 371.3 kPa, w2 = 0.6 | 10.733
264.02 K, 234.6 kPa, w2 = 0.45 | 7.35423
264.02 K, 305.6 kPa, w2 = 0.45 | 9.80334
264.03 K, 136.3 kPa, w2 = 0.45 | 4.14766
264.03 K, 179.2 kPa, w2 = 0.45 | 5.52482
264.03 K, 395.1 kPa, w2 = 0.45 | 13.0578
264.05 K, 220.5 kPa, w2 = 0.4 | 7.15058
264.05 K, 288.1 kPa, w2 = 0.4 | 9.52478
264.06 K, 127.7 kPa, w2 = 0.4 | 4.02995
264.06 K, 168.1 kPa, w2 = 0.4 | 5.36802
264.06 K, 373.8 kPa, w2 = 0.4 | 12.6873
264.29 K, 216 kPa, w2 = 0.5 | 6.42237
264.29 K, 282.6 kPa, w2 = 0.5 | 8.55501
264.29 K, 367.3 kPa, w2 = 0.5 | 11.3955
264.3 K, 124.9 kPa, w2 = 0.5 | 3.61957
264.3 K, 164.5 kPa, w2 = 0.5 | 4.82138
266.99 K, 289.8 kPa, w2 = 0.65 | 7.7396
267.01 K, 221.7 kPa, w2 = 0.65 | 5.82
267.01 K, 375.8 kPa, w2 = 0.65 | 10.2907
267.02 K, 128.5 kPa, w2 = 0.65 | 3.2915
267.02 K, 169 kPa, w2 = 0.65 | 4.3767
267.04 K, 261.1 kPa, w2 = 0.55 | 7.4247
267.04 K, 340.3 kPa, w2 = 0.55 | 9.8728
267.05 K, 199.2 kPa, w2 = 0.55 | 5.5837
267.05 K, 438.6 kPa, w2 = 0.55 | 13.1279
267.07 K, 138.6 kPa, w2 = 0.6 | 3.6841
267.07 K, 151.4 kPa, w2 = 0.55 | 4.1987
267.07 K, 182.7 kPa, w2 = 0.6 | 4.8989
267.07 K, 239.8 kPa, w2 = 0.6 | 6.5142
267.07 K, 313.2 kPa, w2 = 0.6 | 8.6621
267.08 K, 405.7 kPa, w2 = 0.6 | 11.5178
267.95 K, 114.5 kPa, w2 = 0.4 | 3.5398
267.95 K, 150.8 kPa, w2 = 0.4 | 4.71519
267.95 K, 198.3 kPa, w2 = 0.4 | 6.28082
267.96 K, 259.7 kPa, w2 = 0.4 | 8.36602
268 K, 338.5 kPa, w2 = 0.4 | 11.1424
268.07 K, 437.9 kPa, w2 = 0.4 | 14.8381
268.15 K, 234.6 kPa, w2 = 0.45 | 7.16341
268.15 K, 306.8 kPa, w2 = 0.45 | 9.54198
268.15 K, 398.6 kPa, w2 = 0.45 | 12.7103
268.16 K, 135.7 kPa, w2 = 0.45 | 4.03719
268.16 K, 178.7 kPa, w2 = 0.45 | 5.37765
268.22 K, 133.2 kPa, w2 = 0.5 | 3.80047
268.23 K, 175.4 kPa, w2 = 0.5 | 5.06234
268.24 K, 230.4 kPa, w2 = 0.5 | 6.74301
268.24 K, 301.4 kPa, w2 = 0.5 | 8.98179
268.25 K, 391.6 kPa, w2 = 0.5 | 11.9637
270.98 K, 225.5 kPa, w2 = 0.55 | 6.2618
270.99 K, 171.5 kPa, w2 = 0.55 | 4.709
270.99 K, 295.2 kPa, w2 = 0.55 | 8.3263
270.99 K, 384.1 kPa, w2 = 0.55 | 11.0715
271.01 K, 493 kPa, w2 = 0.55 | 14.7211
271.03 K, 140.5 kPa, w2 = 0.65 | 3.5483
271.03 K, 242.2 kPa, w2 = 0.65 | 6.274
271.03 K, 316.1 kPa, w2 = 0.65 | 8.3428
271.04 K, 184.7 kPa, w2 = 0.65 | 4.7181
271.04 K, 466.5 kPa, w2 = 0.6 | 13.2292
271.05 K, 409.9 kPa, w2 = 0.65 | 11.0926
271.08 K, 361.5 kPa, w2 = 0.6 | 9.9474
271.1 K, 160.8 kPa, w2 = 0.6 | 4.2305
271.1 K, 211.6 kPa, w2 = 0.6 | 5.6254
271.1 K, 277.5 kPa, w2 = 0.6 | 7.4803
271.58 K, 526.1 kPa, w2 = 0.5 | 16.4345
271.6 K, 411.1 kPa, w2 = 0.5 | 12.337
271.62 K, 241.2 kPa, w2 = 0.5 | 6.95248
271.62 K, 316.5 kPa, w2 = 0.5 | 9.26115
271.64 K, 182.9 kPa, w2 = 0.5 | 5.21904
271.65 K, 138.7 kPa, w2 = 0.5 | 3.918
272.12 K, 507.5 kPa, w2 = 0.45 | 16.4006
272.13 K, 175.9 kPa, w2 = 0.45 | 5.20923
272.13 K, 231.2 kPa, w2 = 0.45 | 6.93891
272.13 K, 289.6 kPa, w2 = 0.4 | 9.21252
272.13 K, 302.5 kPa, w2 = 0.45 | 9.24297
272.13 K, 393.6 kPa, w2 = 0.45 | 12.3121
272.14 K, 127.8 kPa, w2 = 0.4 | 3.89783
272.14 K, 168.4 kPa, w2 = 0.4 | 5.19207
272.14 K, 221.2 kPa, w2 = 0.4 | 6.91602
